# Assay results: patent US20100317850A1 (priority 2008, published 2010)
# System: Aβ42 production
# Experiment: Quantification of Aβ peptide in culture of neurons from rat fetus brain (Aβ ELISA)
# Type: cell-based
# Settings: Neuron, 72 h; rat primary neuronal culture (cerebral cortex, embryonic day 18 Wistar rats); medium collected three days after addition of the compound; Aβx-42 ELISA; read-out: Aβ42 production reducing effect IC50
# Procedure: Quantification of Aβ Peptide in Culture of Neurons from Rat Fetus Brain
# (1) Rat Primary Neuronal Culture
# Primary neuronal cultures were prepared from the cerebral cortex of embryonic day 18 Wistar rats (Charles River Japan, Yokohama, Japan). Specifically, the embryos were aseptically removed from pregnant rats under ether anesthesia. The brain was isolated from the embryo and immersed in an ice-cold L-15 medium (such as Invitrogen Corp. Cat #11415-064, Carlsbad, Calif., USA, or SIGMA L1518). The cerebral cortex was collected from the isolated brain under a stereoscopic microscope. The cerebral cortex fragments collected were enzymatically treated in an enzyme solution containing 0.25% trypsin (Invitrogen Corp. Cat #15050-065, Carlsbad, Calif., USA) and 0.01% DNase (Sigma D5025, St. Louis, Mo., USA) at 37° C. for 30 minutes to disperse the cells. Here, the enzymatic reaction was stopped by adding inactivated horse serum to the solution. The enzymatically treated solution was centrifuged at 1,500 rpm for five minutes to remove the supernatant. 5 to 10 mL of a medium was added to the resulting cell mass. Neurobasal medium (Invitrogen Corp. Cat #21103-049, Carlsbad, Calif., USA) supplemented with 2% B27 supplement (Invitrogen Corp. Cat #17504-044, Carlsbad, Calif., USA), 25 μM 2-mercaptoethanol (2-ME, WAKO Cat #139-06861, Osaka, Japan), 0.5 mM L-glutamine (Invitrogen Corp. Cat #25030-081, Carlsbad, Calif., USA), and Antibiotics-Antimycotics (Invitrogen Corp. Cat #15240-062, Carlsbad, Calif., USA) was used as the medium (Neurobasal/B27/2-ME). However, the above Neurobasal medium not supplemented with 2-ME (Neurobasal/B27) was used for the assay. The cells were redispersed by mild pipetting of the cell mass to which the medium was added. The cell dispersion was filtered through a 40-μm nylon mesh (Cell Strainer, Cat #35-2340, Becton Dickinson Labware, Franklin Lakes, N.J., USA) to remove the remaining cell mass, and thus a neuronal cell suspension was obtained. The neuronal cell suspension was diluted with the medium and then plated in a volume of 100 μL/well at an initial cell density of 5×10^5 cells/cm^2 in a 96-well polystyrene culture plate pre-coated with poly-L or D-lysine (Falcon Cat #35-3075, Becton Dickinson Labware, Franklin Lakes, N.J., USA coated with poly-L-lysine using the method shown below, or BIOCOAT™ cell environments Poly-D-lysine cell ware 96-well plate, Cat #35-6461, Becton Dickinson Labware, Franklin Lakes, N.J., USA). Poly-L-lysine coating was carried out as follows. 100 μg/mL of a poly-L-lysine (SIGMA P2636, St. Louis, Mo., USA) solution was aseptically prepared with a 0.15 M borate buffer (pH 8.5). […] of the solution was added to the 96-well polystyrene culture plate and incubated at room temperature for one or more hours or at 4° C. overnight or longer. Thereafter, the coated 96-well polystyrene culture plate was washed with sterile water four or more times, and then dried or rinsed with, for example, sterile PBS or medium, and used for cell plating. The plated cells were cultured in the culture plate at 37° C. in 5% CO2-95% air for one day. Then, the total amount of the medium was replaced with a fresh Neurobasal™/B27/2-ME medium, and then the cells were cultured for further three days.
# The drug was added to the culture plate on Day 4 of culture as follows. The total amount of the medium was removed from the wells, and 180 μL/well of Neurobasal medium not containing 2-ME and containing 2% B-27 (Neurobasal/B27) was added thereto. A solution of the test compound in dimethyl sulfoxide (hereinafter abbreviated as DMSO) was diluted with Neurobasal/B27 to a concentration 10-fold higher than the final concentration. 20 μL/well of the dilution was added to and sufficiently mixed with the medium. The final DMSO concentration was 1% or less. Only DMSO was added to the control group.
# The cells were cultured for three days after addition of the compound, and the total amount of the medium was collected. […]
row,SMILES,IC50 [nM]
1,NC1=N[C@@]2(c3cccc(-c4cccnc4F)c3)CN(c3cnccn3)C[C@H]2CS1 [Example 87],62
2,"N#Cc1ccc(C(=O)Nc2cc(F)cc([C@]34CCC[C@H]3CSC(N)=N4)c2)nc1 (racemic) [Example 158, (±)-N-[3-((4aR*,7aS*)-2-amino-4a,5,6,7-tetrahydro-4H-cyclopenta[d][1,3]thiazin-7a-yl)-5-fluorophenyl]-5-cyanopyridine-2-carboxamide]",53
3,"N#Cc1ccc(C(=O)Nc2ccc(F)c([C@]34CC[C@H](F)C[C@H]3CSC(N)=N4)c2)nc1 (relative stereo) [Example 215, N-[3-((4aR*,6S*,8aS*)-2-amino-6-fluoro-4,4a,5,5,6,7,8-hexahydrobenzo[d][1,3]thiazin-8a-yl)-4-fluorophenyl]-5-cyanopyridine-2-carboxamide]",10
4,"CO[C@@H]1CC[C@H]2CSC(N)=N[C@@]2(c2cc(NC(=O)c3ccc(C#N)cn3)ccc2F)C1 (relative stereo) [Example 202, N-[3-((4aR*,7R*,8aS*)-2-amino-7-methoxy-4,4a,5,6,7,8-hexahydrobenzo[d][1,3]thiazin-8a-yl)-4-fluorophenyl]-5-cyanopyridine-2-carboxamide]",3
5,"NC1=N[C@@]2(c3cc(NC(=O)c4ccc(F)cn4)ccc3F)CCCC[C@H]2CS1 (single isomer, unassigned) [Example 256, N-[3-((4aR*,8aS*)-2-amino-4,4a,5,6,7,8-hexahydrobenzo[d][1,3]thiazin-8a-yl)-4-fluorophenyl]-5-fluoropyridine-2-carboxamide]",38
6,NC1=N[C@@]2(c3cc(NC(=O)c4ncccn4)ccc3F)CCC[C@H]2CS1 [Example 198],129
7,"NC1=N[C@@]2(c3cc(NC(=O)c4ccc(Br)cn4)ccc3F)CCC[C@H]2CS1 (single isomer, unassigned) [Example 172, N-[3-((4aR*,7aS*)-2-amino-4a,5,6,7-tetrahydro-4H-cyclopenta[d][1,3]thiazin-7a-yl)-4-fluorophenyl]-5-bromopyridine-2-carboxamide]",7
8,"N#Cc1ccc(C(=O)Nc2ccc(F)c([C@]34CC(F)(F)C[C@H]3CSC(N)=N4)c2)nc1 (relative stereo) [Example 94, (+)-N-[3-((4aR*,7aS*)-2-amino-6,6-difluoro-4a,5,6,7-tetrahydro-4H-cyclopenta[d][1,3]thiazin-7a-yl)-4-fluorophenyl]-5-cyanopyridine-2-carboxamide]",2
9,C[C@H]1OC[C@H]2CSC(N)=N[C@]21c1cc(NC(=O)c2ccc(C#N)cn2)ccc1F [Example 151],167
10,"NC1=N[C@@]2(c3cc(NC(=O)c4ccccn4)ccc3F)CCC[C@H]2CS1 (relative stereo) [Example 6, N-[3-((4aR*,7aS*)-2-amino-4a,5,6,7-tetrahydro-4H-cyclopenta[d][1,3]thiazin-7a-yl)-4-fluorophenyl]pyridine-2-carboxamide]",88
11,NC1=N[C@@]2(c3cc(NC(=O)c4ccc5ccccc5n4)ccc3F)CCC[C@H]2CS1 [Example 139],169
12,"NC1=N[C@@]2(c3cc(NC(=O)c4cnc(OCCF)cn4)ccc3F)CCC[C@H]2CS1 (single isomer, unassigned) [Example 183, N-[3-((4aR*,7aS*)-2-amino-4a,5,6,7-tetrahydro-4H-cyclopenta[d][1,3]thiazin-7a-yl)-4-fluorophenyl]-5-(2-fluoroethoxy)-pyrazine-2-carboxamide]",28
13,N#Cc1cnc(C(=O)Nc2ccc(F)c([C@]34CCC[C@H]3CSC(N)=N4)c2)nc1 [Example 126],70
14,"NC1=N[C@@]2(c3cccc(-c4cccnc4F)c3)CN(c3ncccn3)C[C@H]2CS1 (racemic) [Example 37, (±)-(4aR*,7aS*)-7a-[3-(2-fluoropyridin-3-yl)phenyl]-6-pyrimidin-2-yl-4,4a,5,6,7,7a-hexahydropyrrolo[3,4-d][1,3]thiazin-2-ylamine]",29
15,NC1=N[C@@]2(c3cc(NC(=O)c4ccc(Br)cn4)ccc3F)CCCC[C@H]2CS1 [Example 254],43
16,CCOC(=O)c1cnc(C(=O)Nc2ccc(F)c([C@]34CCC[C@H]3CSC(N)=N4)c2)nc1 [Example 128],231
17,CC(=O)c1ccc(C(=O)Nc2ccc(F)c([C@]34CCC[C@H]3CSC(N)=N4)c2)nc1 [Example 237],80
18,Cc1cc(Cl)ccc1C(=O)Nc1ccc(F)c([C@]23CCC[C@H]2CSC(N)=N3)c1 [Example 197],220
19,"N#Cc1ccc(C(=O)Nc2ccc(F)c([C@]34CCO[C@H](CF)[C@H]3CSC(N)=N4)c2)nc1 (relative stereo) [Example 143, N-[3-((4aS*,5S*,8aS*)-2-amino-5-fluoromethyl-4a,5,7,8-tetrahydro-4H-6-oxa-3-thia-1-azanaphthalen-8a-yl)-4-fluorophenyl]-5-cyanopyridine-2-carboxamide]",16
20,"NC1=N[C@@]2(c3cc(NC(=O)c4ccc(Br)cn4)ccc3F)COC[C@H]2CS1 (relative stereo) [Example 166, N-[3-((4aS*,7aS*)-2-amino-4a,5-dihydro-4H-furo[3,4-d][1,3]thiazin-7a-yl)-4-fluorophenyl]-5-bromopyridine-2-carboxamide]",4
21,"NC1=N[C@@]2(c3cc(NC(=O)c4ccc(OC(F)F)cn4)ccc3F)CO[C@H](CF)[C@H]2CS1 [Example 72, N-[3-((4aS,5,7aS)-2-amino-5-fluoromethyl-4a,5-dihydro-4H-furo[3,4-d][1,3]thiazin-7a-yl)-4-fluorophenyl]-5-difluoromethoxypyridine-2-carboxamide]",2
22,"NC1=N[C@@]2(c3cc(NC(=O)c4ccc(F)cn4)ccc3F)CCC[C@H]2CS1 (relative stereo) [Example 9, N-[3-((4aR*,7aS*)-2-amino-4a,5,6,7-tetrahydro-4H-cyclopenta[d][1,3]thiazin-7a-yl)-4-fluorophenyl]-5-fluoropyridine-2-carboxamide]",28
23,NC1=N[C@@]2(c3cccc(-c4cccnc4F)c3)CN(C(=O)CC3CC3)C[C@H]2CS1 [Example 48],575
24,"NC1=N[C@@]2(c3cc(NC(=O)c4ncccc4F)ccc3F)CCC[C@H]2CS1 (single isomer, unassigned) [Example 171, N-[3-((4aR*,7aS*)-2-amino-4a,5,6,7-tetrahydro-4H-cyclopenta[d][1,3]thiazin-7a-yl)-4-fluorophenyl]-3-fluoropyridine-2-carboxamide]",89
25,"N#Cc1ccc(C(=O)Nc2ccc(F)c([C@]34CO[C@H](CF)[C@H]3CSC(N)=N4)c2)nc1 [Example 164, N-[3-((4aS,5S,7aS)-2-amino-5-fluoromethyl-4a,5-dihydro-4H-furo[3,4-d][1,3]thiazin-7a-yl)-4-fluorophenyl]-5-cyanopyridine-2-carboxamide]",1
26,"COC[C@H]1OC[C@]2(c3cc(NC(=O)c4cnc(OCF)cn4)ccc3F)N=C(N)SC[C@H]12 [Example 69, N-[3-((4aS,5S,7aS)-2-amino-5-methoxymethyl-4a,5-dihydro-4H-furo[3,4-d][1,3]thiazin-7a-yl)-4-fluorophenyl]-5-fluoromethoxypyrazine-2-carboxamide]",2
